Patent publication US20230143604A1, “QW DOSING OF GIP RECEPTOR AGONIST PEPTIDE COMPOUNDS AND USES THEREOF” (TAKEDA PHARMACEUTICAL COMPANY LIMITED, priority 2020, published 2023)
Read-outs that look alike come from different tables or passages of the source.

Legend:
Dogs = format: in vivo; conditions: 30 nmol/kg s.c.
Description: Dogs are transferred to an observation cage (700 mm W×700 mm D×700 mm H [W×D×H], without food) on 1 day before each apomorphine challenge. The dogs are weighed by using an electronic balance then test peptide compounds and vehicle will be administrated via the subcutaneous route. Apomorphine is challenged at 8 hr after the administration and emetic events will be monitored for 1 h by video recording. The second apomorphine challenge will be 72 hr after the administration and emetic events will be recorded by the same protocol. Emesis symptoms are continuously recorded using a video camera and stored on a blue ray disc. Observation of symptoms include retching (a rhythmic contraction of the abdomen) and vomiting (vomiting behavior, including the elimination of vomitus or similar behavior). Besides, the combination of retching and vomiting is defined as emesis, and the number of episodes, latency (time elapsed from morphine administration until the onset of the first emesis symptom), duration (time elapsed between the onset of the first and final episodes of emesis), and frequency (number of animals showing emesis/number of experimental animals) of each of these symptoms is calculated. The latency in cases where emesis symptoms are not noted is taken as the maximum value (1 h for apomorphine challenge) at the end of observation. When the duration of the emesis symptoms is less than 1 min, the duration is recorded, for convenience, as 1 min.

[1] = Human plasma protein binding (PPB); format: in vitro ADME; conditions: human, plasma
Summary of the method: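 Peptides spiked at 1000 nmol/L into pooled human K2-EDTA plasma adjusted to pH 7.4, incubated 30 min at 37 °C, then ultracentrifuged at ~450,000 g, 4 °C for 3 h. Fu derived from LC-MS/MS (MRM) peak area ratios, supernatant versus plasma.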

Question: For `CC[C@H](C)[C@H](NC(=O)[C@H](CO)NC(=O)[C@H](Cc1ccc(O)cc1)NC(=O)[C@H](CC(=O)O)NC(=O)[C@H](CO)NC(=O)[C@@H](NC(=O)[C@H](Cc1ccccc1)NC(=O)[C@@H](NC(=O)CNC(=O)[C@H](CCC(=O)O)NC(=O)C(C)(C)NC(=O)[C@H](Cc1ccc(O)cc1)NC)[C@@H](C)O)[C@@H](C)CC)C(=O)N[C@@H](C)C(=O)N[C@@H](CC(C)C)C(=O)N[C@@H](CC(=O)O)C(=O)N[C@@H](CCCNC(=N)N)C(=O)N[C@@H](CCCCNC(=O)CNC(=O)CNC(=O)CNC(=O)CNC(=O)CNC(=O)CCCCCCCCCCCCCCCCC(=O)O)C(=O)N[C@@H](C)C(=O)N[C@@H](CCC(N)=O)C(=O)NC(C)(C)C(=O)N[C@@H](CC(=O)O)C(=O)N[C@@H](Cc1ccccc1)C(=O)N[C@H](C(=O)N[C@@H](CC(N)=O)C(=O)N[C@@H](Cc1c[nH]c2ccccc12)C(=O)N[C@@H](CC(C)C)C(=O)N[C@@H](CC(C)C)C(=O)N[C@@H](C)C(=O)N[C@@H](CCC(N)=O)C(=O)N[C@@H](CO)C(=O)N1CCC[C@H]1C(=O)N[C@@H](CO)C(=O)N[C@@H](CO)C(=O)NCC(=O)N[C@@H](C)C(=O)N1CCC[C@H]1C(=O)N1CCC[C@H]1C(=O)N1CCC[C@H]1C(=O)N[C@@H](CO)C(N)=O)C(C)C` [Compound 50, Me-Y-Aib-E-G-T-F-I-S-D-Y-S-I-A-L-D-R-Km-A-Q-Aib-D-F-V-N-W-L-L-A-Q-S-P-S-S-G-A-P-P-P-S-NH2], which “% inhibition of emetic events at doses (nmol/kg) shown in dog apomorphine model” value (Dogs; after 8 hrs (upper)) is on record?
Answer: The value was 82% (30 nmol/kg).

Question: And the “% inhibition of emetic events at doses (nmol/kg) shown in dog apomorphine model” value (Dogs; after 72 hours (lower))?
Answer: Its value is 86% (30 nmol/kg).

Question: And the “free unbound peptide in human plasma (in words)” value [1]?
Answer: The value was “optimum free unbound peptide”.
